PMC9323974, “Palladium(II) Complexes of Substituted Salicylaldehydes: Synthesis, Characterization and Investigation of Their Biological Profile” (Pharmaceuticals, 2022)
Where “and” joins values, the source holds several entries; their conditions need not be identical. Equal entries are not always repeated. Where two headings read alike, the source gives them in different places.

Key:
BSA [1] = target: T1, BSA (Bos taurus, UniProt P02769); details: cited from earlier work
T1 construct: purchased Sigma-Aldrich Co
T1 sequence (P02769 25-607): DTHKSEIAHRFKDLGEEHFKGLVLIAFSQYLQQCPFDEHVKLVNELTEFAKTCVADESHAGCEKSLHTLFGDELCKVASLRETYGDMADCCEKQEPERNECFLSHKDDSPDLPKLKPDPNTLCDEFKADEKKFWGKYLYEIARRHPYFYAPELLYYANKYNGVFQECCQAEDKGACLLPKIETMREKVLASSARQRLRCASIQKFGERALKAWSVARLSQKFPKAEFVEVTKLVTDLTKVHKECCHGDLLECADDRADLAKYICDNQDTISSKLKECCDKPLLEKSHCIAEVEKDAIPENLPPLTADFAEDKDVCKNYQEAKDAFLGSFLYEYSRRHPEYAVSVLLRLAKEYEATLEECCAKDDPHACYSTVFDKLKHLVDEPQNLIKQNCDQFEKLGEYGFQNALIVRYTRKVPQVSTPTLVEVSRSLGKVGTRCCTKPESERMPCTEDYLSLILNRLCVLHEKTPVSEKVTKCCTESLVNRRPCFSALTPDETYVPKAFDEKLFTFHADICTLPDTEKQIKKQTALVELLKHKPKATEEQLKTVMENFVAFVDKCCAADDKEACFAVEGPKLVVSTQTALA

[2] = tested on: Xanthomonas campestris ATCC 1395; assay: MIC determination; assay type: cell-based; details: Xanthomonas campestris, ATCC1395, 24 h, read-out: MIC X. campestris
Description: (§1) S2 Antibacterial activity
(§2) The antimicrobial activity of the compounds was evaluated by determining their respective MIC values towards two Gram–(–) (Escherichia coli NCTC 29212 (E. coli) and Xanthomonas campestris ATCC 1395 (X. campestris)) and two Gram–(+) (Staphylococcus aureus ATCC 6538 (S. aureus) and Bacillus subtilis ATCC 6633 (B. subtilis)) bacterial species. Cultures of these microbial strains were grown on a rich selective agar medium and stored at 4°C. The selective media used were Nutrient Agar or Broth for B. subtilis and S. aureus, Yeast Mold Agar or Broth for X. campestris and Luria Agar or Broth for E. coli. Cells picked from the surface of the stored cultures were used to initiate liquid pre–cultures of the same selective medium at an initial turbidity of roughly 1 McFarland unit. Pre–cultures were incubated for 24 h in a rotary shaking incubator and subsequently they were used to inoculate the test cultures used for the determination of MIC at an initial turbidity of 0.5 McFarland units. The test cultures consisted of Mueller –Hinton broth (Deben Diagnostics Ltd) containing different concentrations of the compounds.
(§3) Different concentrations were achieved as follows: the compounds were freshly dissolved in DMSO to a concentration of 1 mg mL–1 and they were diluted with DMSO, using the method of progressive double dilution. Therefore, working solutions with decreasing concentrations of the compounds under investigation were achieved. The working solutions were subsequently diluted to the final desired concentration by addition to the growth medium at a proportion of 2:98. MIC values were determined as the lowest concentrations of the tested compounds that inhibited visible growth of each respective organism after a 24 h incubation [ S3]. Bacterial growth was determined by measuring the turbidity of appropriately diluted cultures at 600 nm with reference to equally diluted sterile growth medium and the inhibition achieved was calculated by comparing the turbidity of each culture to the average of the turbidity of three non–inhibited cultures. All test cultures were grown in triplicates and for the determination of MIC, growth had to be inhibited in at least two cultures of the triplicate. Incubation temperature at all stages was 37°C except for X. campestris that was cultivated at 28°C [S4].

[3] = tested on: Escherichia coli NCTC 29212; assay: MIC determination; assay type: cell-based
Description: as §1, §2, §3

[4] = tested on: Bacillus subtilis ATCC 6633; assay: MIC determination; assay type: cell-based
Description: as §1, §2, §3

[5] = tested on: Staphylococcus aureus ATCC 6538; assay: MIC determination; assay type: cell-based
Description: as §1, §2, §3

[6] = cited from earlier work
[7] = cited from earlier work; remark: listed apart in the source
BSA [8] = target: T1, BSA; details: cited from earlier work; remark: listed apart in the source
CT DNA = details: cited from earlier work
EB-DNA adduct (CT DNA) = details: cited from earlier work
[9] = cited from earlier work; remark: listed apart in the source
HSA [10] = target: T2, HSA (Homo sapiens, UniProt P02768); details: cited from earlier work
T2 construct: purchased Sigma-Aldrich Co
T2 sequence (P02768 25-609): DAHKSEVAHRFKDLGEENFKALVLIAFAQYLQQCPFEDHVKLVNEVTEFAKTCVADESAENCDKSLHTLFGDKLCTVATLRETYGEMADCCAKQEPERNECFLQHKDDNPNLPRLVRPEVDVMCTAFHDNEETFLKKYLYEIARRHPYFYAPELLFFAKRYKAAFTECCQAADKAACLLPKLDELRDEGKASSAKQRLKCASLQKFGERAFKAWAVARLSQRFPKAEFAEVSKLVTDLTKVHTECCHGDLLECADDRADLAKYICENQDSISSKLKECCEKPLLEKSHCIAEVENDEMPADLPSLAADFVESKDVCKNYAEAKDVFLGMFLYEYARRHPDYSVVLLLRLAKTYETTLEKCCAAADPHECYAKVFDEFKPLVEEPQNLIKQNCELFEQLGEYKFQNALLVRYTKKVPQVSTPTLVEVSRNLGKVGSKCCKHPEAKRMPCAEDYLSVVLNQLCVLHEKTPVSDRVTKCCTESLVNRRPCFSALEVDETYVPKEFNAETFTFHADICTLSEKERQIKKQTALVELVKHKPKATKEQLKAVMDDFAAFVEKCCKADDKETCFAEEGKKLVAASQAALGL

HSA [11] = target: T2, HSA; details: cited from earlier work; remark: listed apart in the source
DPPH radical scavenging = details: compound 0.1 mM
Description: (§4) S1 Antioxidant biological assay
The antioxidant activity of the compounds was evaluated via their ability to scavenge in
vitro free radicals such as DPPH and ABTS and to reduce H2O2. All the experiments were carried
S1.1 Determination of the reducing activity of the stable radical DPPH
To an ethanolic solution of DPPH (0.1 mM) an equal volume solution of the compounds
(0.1 mM) in ethanol was added. Absolute ethanol was also used as control solution. The absorbance
at 517 nm was recorded at room temperature after 30 and 60 min, in order to examine the possible
existence of a potential time–dependence of the DPPH radical scavenging activity [S1]. The DPPH–
scavenging activity of the compounds was expressed as the percentage reduction of the absorbance
values of the initial DPPH solution (DPPH%). NDGA and BHT were used as reference compounds. […]

[12] = Reduction of hydrogen peroxide; details: compound 0.1 mM
Description: as §4
(§5) The antioxidant activity of the compounds was evaluated via their ability to scavenge in […]
(§6) vitro free radicals such as DPPH and ABTS and to reduce H2O2. […]
S1.3 Reduction of hydrogen peroxide
The ability of the compounds to reduce hydrogen peroxide (H2O2) was estimated according […]
to the method described in the literature [S2]. The reaction mixture contained 20 μL of each of the […]
tested compounds (0.1 mM) and 5 μL H 2O2 solution (40 mM) in phosphate buffer (50 mM, pH 7.4).
The absorbance was measured at 230 nm after 10 min. The antioxidant activity (reduction of […]

[13] = tested on: S. aureus, B. subtilis, E. coli, X. campestris; assay: MIC stated for all tested bacterial strains; assay type: cell-based; details: all tested microbes
Description: as §1, §2, §3

[14] = ABTS radical cation scavenging; details: compound 0.1 mM
Description: as §4, §5, §6
S1.2 Assay of radical cation ABTS–scavenging activity
The ABTS assay was performed to determine the activity of the compounds to scavenge the […]
radical cation ABTS. Initially, a water solution of ABTS was prepared (2 mM). ABTS radical cation […]
(ABTS+·) was produced by the reaction of ABTS stock solution with potassium persulfate (0.17 […]
mM) and the mixture was stored in the dark at room temperature for 12–16 h before its use. The […]
ABTS was oxidized incompletely because the stoichiometric reaction ratio of ABTS and potassium […]
persulfate is 1:0.5. The absorbance became maximal and stable only after more than 6 h of reaction […]
although the oxidation of the ABTS started immediately. The radical was stable in this form for […]
more than 2 days when allowed to stand in the dark at room temperature. Afterwards, the ABTS+· […]
solution was diluted in ethanol to an absorbance of 0.70 at 734 nm and 10 μL of diluted compounds or standards (0.1 mM) in DMSO were added. The absorbance was recorded out exactly 1 min after […]
initial mixing [S1]. The ABTS radical scavenging activity was expressed as the percentage inhibition of the absorbance of the initial ABTS solution (ABTS%). […]

## O=Cc1cc(Br)cc(Br)c1O [3,5-diBr-saloH, 3,5-dibromo-salicylaldehyde]
BSA [1]
  BSA-binding constant K, Marker: Ibuprofen: 7.11 (±0.29) × 10^5 M^−1
  BSA-binding constant K, No Marker: 2.97 (±0.16) × 10^6 M^−1
  BSA-binding constant K, Marker: Warfarin: 2.84 (±0.10) × 10^5 M^−1
[2]
  MIC: 25 µg/mL and 89 µM
[3]; Escherichia coli, NCTC29212, 24 h, read-out: MIC E. coli
  MIC: 50 µg/mL and 179 µM
[4]; Bacillus subtilis, ATCC6633, 24 h, read-out: MIC B. subtilis
  MIC: 25 µg/mL and 89 µM
[5]; Staphylococcus aureus, ATCC6538, 24 h, read-out: MIC S. aureus
  MIC: 25 µg/mL and 89 µM
[6]
  DPPH% (30 min): 7.97 ± 0.53%
  DPPH% (60 min): 10.22 ± 0.30%
[7]
  H2O2%: 76.05 ± 1.51%
BSA [8]
  K BSA-binding constant: 2.97 (±0.16) × 10^6 M^−1
  kq BSA-quenching constant: 3.65 (±0.25) × 10^13 M^−1 s^−1
CT DNA
  Kb (DNA-binding constant): 3.71 (±0.14) × 10^5 M^−1
EB-DNA adduct (CT DNA)
  KSV (Stern–Volmer constant), EB-DNA: 3.95 (±0.10) × 10^4 M^−1
  kq (EB-DNA quenching constant): 1.72 (±0.04) × 10^12 M^−1s^−1
  ΔΙ/Ι0 (%) EB-DNA fluorescence quenching: 46.6%
[9]
  ABTS%: 16.55 ± 0.31%
HSA [10]
  K HSA-binding constant: 4.04 (±0.30) × 10^5 M^−1
  kq HSA-quenching constant: 1.72 (±0.06) × 10^13 M^−1 s^−1
HSA [11]
  HSA-binding constant K, Marker: Ibuprofen: 4.56 (±0.37) × 10^4 M^−1
  HSA-binding constant K, No Marker: 4.04 (±0.30) × 10^5 M^−1
  HSA-binding constant K, Marker: Warfarin: 1.23 (±0.05) × 10^5 M^−1

## O=Cc1cc(Cl)cc(Cl)c1O [3,5-diCl-saloH, 3,5-dichloro-salicylaldehyde]
BSA [1]
  BSA-binding constant K, Marker: Ibuprofen: 1.35 (±0.55) × 10^5 M^−1
  BSA-binding constant K, No Marker: 1.64 (±0.10) × 10^6 M^−1
  BSA-binding constant K, Marker: Warfarin: 5.09 (±0.09) × 10^5 M^−1
[2]
  MIC: 50 µg/mL and 262 µM
[3]; Escherichia coli, NCTC29212, 24 h; read-out: MIC E. coli
  MIC: 50 µg/mL
[3]; Escherichia coli, NCTC29212; 24 h, value in parentheses; read-out: MIC E. coli
  MIC: 262 µM
[4]; Bacillus subtilis, ATCC6633, 24 h; read-out: MIC B. subtilis
  MIC: 50 µg/mL
[4]; Bacillus subtilis, ATCC6633; 24 h, value in parentheses; read-out: MIC B. subtilis
  MIC: 262 µM
[5]; Staphylococcus aureus, ATCC6538, 24 h; read-out: MIC S. aureus
  MIC: 50 µg/mL
[5]; Staphylococcus aureus, ATCC6538; 24 h, value in parentheses; read-out: MIC S. aureus
  MIC: 262 µM
[6]
  DPPH% (30 min): 15.68 ± 0.15%
  DPPH% (60 min): 18.80 ± 0.52%
[7]
  H2O2%: 79.92 ± 0.34%
BSA [8]
  K BSA-binding constant: 1.64 (±0.10) × 10^6 M^−1
  kq BSA-quenching constant: 1.47 (±0.09) × 10^13 M^−1 s^−1
CT DNA
  Kb (DNA-binding constant): 5.36 (±0.15) × 10^5 M^−1
EB-DNA adduct (CT DNA)
  KSV (Stern–Volmer constant), EB-DNA: 3.56 (±0.09) × 10^4 M^−1
  kq (EB-DNA quenching constant): 1.55 (±0.04) × 10^12 M^−1s^−1
  ΔΙ/Ι0 (%) EB-DNA fluorescence quenching: 43.2%
[9]
  ABTS%: 84.89 ± 0.16%
HSA [10]
  K HSA-binding constant: 6.33 (±0.14) × 10^5 M^−1
  kq HSA-quenching constant: 7.11 (±0.32) × 10^12 M^−1 s^−1
HSA [11]
  HSA-binding constant K, Marker: Ibuprofen: 1.87 (±0.08) × 10^5 M^−1
  HSA-binding constant K, No Marker: 6.33 (±0.14) × 10^5 M^−1
  HSA-binding constant K, Marker: Warfarin: 1.52 (±0.07) × 10^5 M^−1

## Cc1cc(C(C)(C)C)c(O)c(C(C)(C)C)c1 [BHT, butylated hydroxytoluene, reference compound]
DPPH radical scavenging
  DPPH% (30 min): 61.30 ± 1.16%
  DPPH% (60 min): 79.78 ± 1.12%

## CC[n+]1c(-c2ccccc2)c2cc(N)ccc2c2ccc(N)cc21.[Br-] [EB, 3,8-diamino-5-ethyl-6-phenyl-phenanthridinium bromide]
CT DNA; classical intercalator
  Kb (DNA-binding constant): 1.23 (±0.07) × 10^5 M^−1

## O=C1O[C@H]([C@@H](O)CO)C(O)=C1O [L-ascorbic acid, reference compound]
[12]
  H2O2%: 60.80 ± 0.20%

## CC(Cc1ccc(O)c(O)c1)C(C)Cc1ccc(O)c(O)c1 (stereo not shown) [NDGA, nordihydroguaiaretic acid, reference compound]
DPPH radical scavenging
  DPPH% (30 min): 87.08 ± 0.12%
  DPPH% (60 min): 87.47 ± 0.12%

## CC(=O)[O-].CC(=O)[O-].[Pd+2] [Pd(CH3COO)2]
[13]
  MIC: > 200 µg/mL

## Cc1c(C)c2c(c(C)c1O)CCC(C)(C(=O)O)O2 (stereo not shown) [Trolox, 6-hydroxy-2,5,7,8-tetramethylchromane-2-carboxylic acid, reference compound]
[14]
  ABTS%: 98.10 ± 0.48%
